We go through 7 compounds from US5244892A, “Cephem compounds, and antibacterial agents” (Kyorin Pharmaceutical Co., Ltd., priority 1990, dated 1993).

Holding throughout (test): in vitro antibacterial activity (minimum inhibitory concentration), standard method of the Japan Chemotherapy Society
Common to all, as to assay type: cell-based

Experiment [1] relates to Escherichia coli ATCC 10536. The following applies: ATCC10536, Gram (-), 10^6 cells/ml, read-out: Minimum inhibitory concentration for growth.
The subject of experiment [2] is Staphylococcus aureus 209P. The note with it: read-out: Minimum inhibitory concentration for growth.
In experiment [3] the test system is Pseudomonas aeruginosa IFO 12689.
Experiment [4] relates to Streptococcus pneumoniae Type III. The note with it: read-out: Minimum inhibitory concentration for growth.
The subject of experiment [5] is Klebsiella pneumoniae 1-220 S. The note with it: 1220S, read-out: Minimum inhibitory concentration for growth.
The test system of a further experiment is S. epidermidis IID 866. The following applies: Staphylococcus epidermidis.
Where [6] appears, read: IFO12689, Gram (-), 10^6 cells/ml, read-out: Minimum inhibitory concentration for growth.
Setting [7] is: IID866, Gram (+), 10^6 cells/ml, read-out: Minimum inhibitory concentration for growth.

In brackets after ≈: the same amount, converted by molar mass. Where two headings read alike, the source gives them in different places.

Regarding `CC(C)(O/N=C(\C(=O)N[C@@H]1C(=O)N2C(C(=O)[O-])=C(C[n+]3ccccc3)CS[C@H]12)c1csc(N)n1)C(=O)O` [CAZ, ceftazidime, reference compound], the MIC in experiment [1] turned out to be 50 ng/mL (≈ 0.0915 µM); in experiment [2] it was 3.13 µg/mL (≈ 5.73 µM); in experiment [3] (IFO12689, read-out: Minimum inhibitory concentration for growth) it was 3.13 µg/mL (≈ 5.73 µM); in experiment [4], 0.39 µg/mL (≈ 0.714 µM); in experiment [5], 200 ng/mL (≈ 0.366 µM); with S. epidermidis IID 866 (IID866, read-out: Minimum inhibitory concentration for growth) it was 3.13 µg/mL (≈ 5.73 µM).

Turning to `CO/N=C(\C(=O)N[C@@H]1C(=O)N2C(C(=O)O)=C(COC(C)=O)CS[C@H]12)c1csc(N)n1` [CTX, cefotaxime, reference compound], the MIC in experiment [1] worked out at 25 ng/mL (≈ 0.0549 µM); in experiment [2] (Gram (+), 10^6 cells/ml) it was 0.78 µg/mL (≈ 1.71 µM); in experiment [3] (setting [6]), 25 µg/mL (≈ 54.9 µM); in experiment [4] (Gram (+), 10^6 cells/ml), 0.1 µg/mL (≈ 0.22 µM); in experiment [5] (Gram (-), 10^6 cells/ml), 50 ng/mL (≈ 0.11 µM); with S. epidermidis IID 866 (setting [7]), 0.78 µg/mL (≈ 1.71 µM).

As for `CO/N=C(\C(=O)N[C@@H]1C(=O)N2C(C(=O)O)=C(CSc3cc(=O)c4cc(O)c(O)cc4s3)CS[C@H]12)c1csc(N)n1` [Example 75, Sodium 7β-[(Z)-2-(2-aminothiazole-4-yl)-2-methoxyiminoacetamido]-3-(6,7-dihydroxy-4-oxo-4H-1-benzothiopyran-2-yl) thiomethyl-3-cephem-4-carboxylate], the MIC in experiment [1] is not above 6.3 ng/mL; in experiment [2] (Gram (+), 10^6 cells/ml) it was 0.39 µg/mL; in experiment [3] (setting [6]), 0.39 µg/mL; in experiment [4] (Gram (+), 10^6 cells/ml), 0.1 µg/mL; in experiment [5] (Gram (-), 10^6 cells/ml) it was not above 6.3 ng/mL; with S. epidermidis IID 866 (setting [7]) it was 0.78 µg/mL.

Consider `CO/N=C(\C(=O)N[C@@H]1C(=O)N2C(C(=O)O)=C(CSc3cc(=O)c4cc(O)c(O)cc4s3)CS[C@H]12)c1nsc(N)n1` [Example 90, Sodium 7β[(Z)-2-(5-amino-1,2,4-thiadiazole-3-yl)-2-methoxyiminoacetamido]-3-(6,7-dihydroxy-4-oxo-4H-1-benzothiopyran-2-yl) thiomethyl-3-cephem-4-carboxylate], for which the MIC is not above 6.3 ng/mL in experiment [1]; 1.56 µg/mL in experiment [2] (Gram (+), 10^6 cells/ml); 0.05 µg/mL in experiment [3] (setting [6]); 0.1 µg/mL in experiment [4] (Gram (+), 10^6 cells/ml); not above 6.3 ng/mL in experiment [5] (Gram (-), 10^6 cells/ml); 1.56 µg/mL in the experiment with S. epidermidis IID 866 (setting [7]).

Turning to `Nc1nc(/C(=N/OCC(=O)O)C(=O)N[C@@H]2C(=O)N3C(C(=O)O)=C(CSc4sc5cc(O)c(O)cc5c(=O)c4Br)CS[C@H]23)cs1` [Example 100, Disodium 7β-[(Z)-2-(2-aminothiazole-4-yl)-2-carboxymethoxyiminoacetamido]-3-(3-bromo-6,7-dihydroxy-4-oxo-4H-1-benzothiopyran-2-yl)thiomethyl-3-cephem-4-carboxylate], the MIC in experiment [1] was not above 6.3 ng/mL; in experiment [2] (Gram (+), 10^6 cells/ml), 12.5 µg/mL; in experiment [3] (setting [6]), 0.1 µg/mL; in experiment [4] (Gram (+), 10^6 cells/ml), 3.13 µg/mL; in experiment [5] (Gram (-), 10^6 cells/ml) it was not above 6.3 ng/mL; with S. epidermidis IID 866 (setting [7]), 12.5 µg/mL.

Turning to `Nc1nc(/C(=N/OCC(=O)O)C(=O)N[C@@H]2C(=O)N3C(C(=O)O)=C(CSc4cc(=O)c5cc(O)c(O)cc5s4)CS[C@H]23)cs1` [Example 108, Disodium 7β-[(Z)-2-(2-aminothiazole-4-yl)-2-carboxymethoxyiminoacetamido]-3-(6,7-dihydroxy-4-oxo-4H-1-benzothiopyran-2-yl)thiomethyl-3-cephem-4-carboxylate], the MIC in experiment [1] is not above 6.3 ng/mL; in experiment [2] (Gram (+), 10^6 cells/ml), 6.25 µg/mL; in experiment [3] (setting [6]), 0.05 µg/mL; in experiment [4] (Gram (+), 10^6 cells/ml) it was 0.78 µg/mL; in experiment [5] (Gram (-), 10^6 cells/ml), not above 6.3 ng/mL; in the experiment on S. epidermidis IID 866 (setting [7]), 12.5 µg/mL.

Regarding `CC(C)(O/N=C(\C(=O)N[C@@H]1C(=O)N2C(C(=O)O)=C(CSc3cc(=O)c4cc(O)c(O)cc4s3)CS[C@H]12)c1csc(N)n1)C(=O)O` [Example 110, Disodium 7β-[(Z)-2-(2-aminothiazole-4-yl)-2-(1-carboxy-1-methylethoxy)iminoacetamido]-3-(6,7-dihydroxy-4-oxo-4H-1-benzothiopyran-2-yl)thiomethyl-3-cephem-4-carboxylate], the MIC in experiment [1] was not above 6.3 ng/mL; in experiment [2] (Gram (+), 10^6 cells/ml), 6.25 µg/mL; in experiment [3] (setting [6]), 0.05 µg/mL; in experiment [4] (Gram (+), 10^6 cells/ml), 0.78 µg/mL; in experiment [5] (Gram (-), 10^6 cells/ml), not above 6.3 ng/mL; in the experiment on S. epidermidis IID 866 (setting [7]) it was 12.5 µg/mL.
